Data set [1] is described as follows: Spontaneous hydrolysis of probe in PBS buffer. Format: physicochemical. The conditions noted are these: [S]0=20 μM. The source says:
FIGS. 14A-14G illustrate the spontaneous hydrolysis in buffer of a probe according to the disclosure. FIG. 14A is a schema illustrating the spontaneous hydrolysis of a probe of the disclosure in PBS buffer to release umbelliferone and thereby generate a fluorescent signal. […] Initial concentration of probe, [P]: […] Error bars indicate the standard deviations of three replicate experiments.

Data set [2] relates to VIM-27. Briefly: Fluorescence of probes after incubation with recombinant VIM-27. Format: biochemical, Klebsiella pneumoniae. To be noted: VIM-27 1 to 200 fmols; probe 10 μM, 25 μL 1×PBS pH 7.4, room temperature, 2 h. The procedure: (§1) The fluorescence of the probes was measured before and after enzyme treatment using enzyme concentrations in the range of about 1 to about 200 fmols. […] CDC-1, a previously reported non-specific probe for β-lactamases employed as a positive control, as described by Xie et al., (2012) J. Nat.

Data set [3] addresses T1, IMP-1 (Serratia marcescens, UniProt P52699). Format: biochemical, Escherichia coli. To be noted: IMP-1 1 to 200 fmols; probe 10 μM, 25 μL 1×PBS pH 7.4, room temperature, 2 h.
Data set [4] addresses T2, NDM-1 (Klebsiella pneumoniae, UniProt C7C422). Format: biochemical, Escherichia coli. The conditions noted are these: NDM-1 1 to 200 fmols; probe 10 μM, 25 μL 1×PBS pH 7.4, room temperature, 2 h.
The target in data set [5] is T3, KPC-3 (Klebsiella pneumoniae, UniProt Q9F663, H272Y). Format: biochemical. To be noted: KPC-3 1 to 200 fmols; probe 10 μM, 25 μL 1×PBS pH 7.4, room temperature, 2 h.
Another data set has as its target TEM-1 Bla (Escherichia coli, UniProt P62593). Format: biochemical. The conditions noted are these: TEM-1 Bla 1 to 200 fmols; probe 10 μM, 25 μL 1×PBS pH 7.4, room temperature, 2 h.
The target of a further data set is BlaC (Mycobacterium tuberculosis, UniProt P9WKD3). In words: Fluorescence of probes after incubation with recombinant BlaC. Format: biochemical. The conditions noted are these: BlaC 1 to 200 fmols; probe 10 μM, 25 μL 1×PBS pH 7.4, room temperature, 2 h. How it is done: as §1
Data set [6] deals with T1, IMP-1. To be noted: from Lineweaver-Burk plots.
Description: (§2) The kinetic parameters of the probes of the disclosure with different 3-lactamases were determined from Lineweaver-Burk plots and summarized in FIGS. 7A-13F and Table 1.
(§3) Kinetic experiments were conducted in a M1000 microplate reader (TECAN, research triangle park, NC).
The target of data set [7] is T2, NDM-1. The conditions noted are these: from Lineweaver-Burk plots.
Description: as §2, §3
Data set [8] deals with T3, KPC-3. The conditions noted are these: from Lineweaver-Burk plots.
Description: as §2, §3
Data set [9] deals with VIM-27. Briefly: Kinetic parameters of probes with recombinant VIM-27 (Lineweaver-Burk plots). To be noted: from Lineweaver-Burk plots.
Description: as §2, §3

For orientation: Km means the substrate concentration at which the rate is half of its maximum. For orientation: kcat means the number of substrate molecules converted per active site and unit of time at saturation.

SMILES strings stand for the structures. Marks after values point to notes of the source that are not given here.

T2 sequence (C7C422 29-270 limits assumed): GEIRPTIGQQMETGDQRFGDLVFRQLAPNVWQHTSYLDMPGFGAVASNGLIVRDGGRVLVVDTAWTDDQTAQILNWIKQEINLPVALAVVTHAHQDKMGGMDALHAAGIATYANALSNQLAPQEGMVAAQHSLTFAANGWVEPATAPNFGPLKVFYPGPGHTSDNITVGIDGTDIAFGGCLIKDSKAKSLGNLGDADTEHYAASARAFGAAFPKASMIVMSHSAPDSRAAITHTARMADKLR
T3 sequence (Q9F663 25-293 H272Y): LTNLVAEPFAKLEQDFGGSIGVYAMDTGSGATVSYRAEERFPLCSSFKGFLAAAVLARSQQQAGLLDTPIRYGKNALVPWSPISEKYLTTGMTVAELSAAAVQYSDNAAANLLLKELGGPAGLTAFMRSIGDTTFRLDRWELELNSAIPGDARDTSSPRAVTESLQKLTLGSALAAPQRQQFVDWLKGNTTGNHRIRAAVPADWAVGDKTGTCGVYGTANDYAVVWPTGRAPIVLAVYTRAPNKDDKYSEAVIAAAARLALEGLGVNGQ
T1 sequence (P52699 19-246 limits assumed): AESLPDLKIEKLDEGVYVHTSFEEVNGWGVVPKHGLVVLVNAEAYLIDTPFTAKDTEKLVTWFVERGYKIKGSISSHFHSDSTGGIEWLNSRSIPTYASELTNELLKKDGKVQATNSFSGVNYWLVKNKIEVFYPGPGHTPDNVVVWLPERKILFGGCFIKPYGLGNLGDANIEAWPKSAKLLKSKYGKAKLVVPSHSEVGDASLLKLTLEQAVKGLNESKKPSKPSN
TEM-1 Bla, sequence (P62593 24-286 limits assumed): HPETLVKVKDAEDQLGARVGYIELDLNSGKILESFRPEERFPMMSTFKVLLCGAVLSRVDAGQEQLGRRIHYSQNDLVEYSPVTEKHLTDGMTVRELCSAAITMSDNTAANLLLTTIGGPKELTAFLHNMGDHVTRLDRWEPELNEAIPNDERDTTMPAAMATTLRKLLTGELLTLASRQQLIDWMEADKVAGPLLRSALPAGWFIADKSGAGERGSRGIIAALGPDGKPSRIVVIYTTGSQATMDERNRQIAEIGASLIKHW
BlaC, sequence (P9WKD3 41-307 limits assumed): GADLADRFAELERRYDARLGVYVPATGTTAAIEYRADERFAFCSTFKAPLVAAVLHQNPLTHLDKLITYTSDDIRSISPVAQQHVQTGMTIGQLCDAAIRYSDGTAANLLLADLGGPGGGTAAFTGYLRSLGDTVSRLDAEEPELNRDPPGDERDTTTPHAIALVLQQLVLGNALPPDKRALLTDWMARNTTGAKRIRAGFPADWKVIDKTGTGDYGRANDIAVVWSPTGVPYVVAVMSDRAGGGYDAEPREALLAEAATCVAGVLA

For the compound `O=C(Cc1ccccc1)N[C@@H]1C(=O)N2C(C(=O)O)=C(COc3ccc4ccc(=O)oc4c3)CS[C@H]12` [CDC-1, reference compound], the Spontaneous hydrolysis rate in [1] is reported as 2.4^b ×10^−7s^−1. The fluorescence enhancement entry with VIM-27 [2], at IMP-1 [3], on NDM-1 [4], on KPC-3 [5], at TEM-1 Bla and at BlaC was “positive fluorescence enhancement” throughout. The Michaelis constant (Km) at IMP-1 [6] turned out to be 4 ± 0.1 µM; on NDM-1 [7] it was 5.04 ± 3.2 µM; on KPC-3 [8], 21 ± 1.34 µM; in the data set on VIM-27 [9], 3.8 ± 2.7 µM. In addition, the kcat is 7.9 ± 0.1 s⁻¹ on IMP-1 [6], 4.6 ± 0.3 s⁻¹ on NDM-1 [7], 35.4 ± 0.04 s⁻¹ on KPC-3 [8] and 2.3 ± 0.3 s⁻¹ in the data set with VIM-27 [9].

(Values after patent publication US10570150B2, “6,7-trans cephalosporin-based probes for detecting bacteria expressing a metallo-beta-lactamase” (priority 2014, dated 2020).)
